This passage reports IC50 results from patent US9783573B2, “IAP antagonists” (BRISTOL-MYERS SQUIBB COMPANY, priority 2012, dated 2017).

The target in the first assay is N-His-Tb-BIR3 (241-356, XIAP) (Homo sapiens (Human), UniProt P98170). In words: biochemical.
Settings: not given
It is filed as binding.
Usually IC50 stands for the point on the concentration scale where inhibition reaches its midpoint. The molecule `CN[C@@H](C)C(=O)N[C@H](C(=O)N1Cc2cc(NC(=O)c3ccc(C(=O)N[C@H]4C[C@@H](C(=O)N[C@@H]5CCCc6ccccc65)N(C(=O)[C@@H](NC(=O)[C@@H](NC)C(C)C)C(C)(C)C)C4)cc3)ccc2C[C@H]1C(=O)N[C@@H]1CCCc2ccccc21)C(C)(C)C` [Example 36, N^1-((S)-2-((S)-3,3-dimethyl-2-((S)-2-(methylamino)propanamido)butanoyl)-3-(((R)-1,2,3,4-tetrahydronaphthalen-1-yl)carbamoyl)-1,2,3,4-tetrahydroisoquinolin-7-yl)-N^4-((3S,5S)-1-((S)-3,3-dimethyl-2-((S)-3-methyl-2-(methylamino)butanamido)butanoyl)-5-(((R)-1,2,3,4-tetrahydronaphthalen-1-yl)carbamoyl)pyrrolidin-3-yl)terephthalamide] returned an IC50 of 190 nM.

Still in this assay, the particulars now being: fluoresceinated modified SMAC peptide, fluorescence polarization; read-out: XIAP BIR3 FPA IC50.
On to `CN[C@@H](C)C(=O)N[C@H](C(=O)N1Cc2cc(NC(=O)c3ccc(CO[C@H]4C[C@@H](C(=O)N[C@@H]5CCCc6ccccc65)N(C(=O)[C@@H](NC(=O)[C@H](C)NC)C(C)(C)C)C4)cc3)ccc2C[C@H]1C(=O)N[C@H](C)c1ccccc1F)C(C)(C)C` [Example 50, (S)-2-((S)-3,3-Dimethyl-2-((S)-2-(methylamino)propanamido)butanoyl)-7-(4-((((3S,5S)-1-((S)-3,3-dimethyl-2-((S)-2-(methylamino)propanamido)butanoyl)-5-(((R)-1,2,3,4-tetrahydronaphthalen-1-yl)carbamoyl)pyrrolidin-3-yl)oxy)methyl)benzamido)-N-((R)-1-(2-fluorophenyl)ethyl)-1,2,3,4-tetrahydroisoquinoline-3-carboxamide], for which the IC50 turned out to be 53 nM. Same read-out and setting: as for `CC[C@H](NC)C(=O)N[C@H](C(=O)N1Cc2cc(OCc3ccc(C(=O)N[C@H]4C[C@@H](C(=O)N[C@@H]5CCCc6ccccc65)N(C(=O)[C@@H](NC(=O)[C@H](C)NC)C(C)(C)C)C4)cc3)ccc2C[C@H]1C(=O)N[C@@H]1CCCc2ccccc21)C(C)(C)C` [Example 43], the figure is 130 nM; as for `CN[C@@H](C)C(=O)N[C@H](C(=O)N1Cc2cc(NC(=O)c3ccc4ccn(C(=O)NC5C[C@@H](C(=O)NC6CCCc7ccccc76)N(C(=O)[C@@H](NC(=O)[C@H](C)NC)C(C)(C)C)C5)c4c3)ccc2C[C@H]1C(=O)NC1CCCc2ccccc21)C(C)(C)C` (stereo partly drawn) [Example 53, N^6-((3S)-2-((S)-3,3-Dimethyl-2-((S)-2-(methylamino)propanamido)butanoyl)-3-((1,2,3,4-tetrahydronaphthalen-1-yl)carbamoyl)-1,2,3,4-tetrahydroisoquinolin-7-yl)-N^1-((5S)-1-((S)-3,3-dimethyl-2-((S)-2-(methylamino)propanamido)butanoyl)-5-((1,2,3,4-tetrahydronaphthalen-1-yl)carbamoyl)pyrrolidin-3-yl)-1H-indole-1,6-dicarboxamide], 140 nM; as for `CN[C@@H](C)C(=O)N[C@H](C(=O)N1Cc2cc(C(=O)Nc3ccc(C(=O)N[C@H]4C[C@@H](C(=O)N[C@@H]5CCCc6ccccc65)N(C(=O)[C@@H](NC(=O)[C@H](C)NC)C(C)(C)C)C4)cc3)ccc2C[C@H]1C(=O)N[C@@H]1CCCc2ccccc21)C(C)(C)C` [Example 27, (S)-2-((S)-3,3-Dimethyl-2-((S)-2-(methylamino)propanamido)butanoyl)-N^7-(4-(((3S,5S)-1-((S)-3,3-dimethyl-2-((S)-2-(methylamino)propanamido)butanoyl)-5-(((R)-1,2,3,4-tetrahydronaphthalen-1-yl)carbamoyl)pyrrolidin-3-yl)carbamoyl)phenyl)-N^3—((R)-1,2,3,4-tetrahydronaphthalen-1-yl)-1,2,3,4-tetrahydroisoquinoline-3,7-dicarboxamide], 73 nM. In the case of `CN[C@@H](C)C(=O)N[C@H](C(=O)N1Cc2cc(NC(=O)CCc3ccc(C(=O)N[C@H]4C[C@@H](C(=O)N[C@@H]5CCCc6ccccc65)N(C(=O)[C@@H](NC(=O)[C@H](C)NC)C(C)(C)C)C4)cc3)ccc2C[C@H]1C(=O)N[C@@H]1CCCc2ccccc21)C(C)(C)C` [Example 8, (S)-2-((S)-3,3-Dimethyl-2-((S)-2-(methylamino)propanamido)butanoyl)-7-(3-(4-(((3S,5S)-1-((S)-3,3-dimethyl-2-((S)-2-(methylamino)propanamido)butanoyl)-5-(((R)-1,2,3,4-tetrahydronaphthalen-1-yl)carbamoyl)pyrrolidin-3-yl)carbamoyl)phenyl)propanamido)-N-((R)-1,2,3,4-tetrahydronaphthalen-1-yl)-1,2,3,4-tetrahydroisoquinoline-3-carboxamide], the IC50 came out at 57 nM. Same read-out and setting: as for `CN[C@@H](C)C(=O)N[C@H](C(=O)N1Cc2ccc(OCc3ccc(C(=O)N[C@H]4C[C@@H](C(=O)N[C@@H]5CCCc6ccccc65)N(C(=O)[C@@H](NC(=O)[C@H](C)NC)C(C)(C)C)C4)cc3)cc2C[C@H]1C(=O)N[C@@H]1CCCc2ccccc21)C(C)(C)C` [Example 41, (S)-2-((S)-3,3-Dimethyl-2-((S)-2-(methylamino)propanamido)butanoyl)-6-((4-(((3S,5S)-1-((S)-3,3-dimethyl-2-((S)-2-(methylamino)propanamido)butanoyl)-5-(((R)-1,2,3,4-tetrahydronaphthalen-1-yl)carbamoyl)pyrrolidin-3-yl)carbamoyl)benzyl)oxy)-N-((R)-1,2,3,4-tetrahydronaphthalen-1-yl)-1,2,3,4-tetrahydroisoquinoline-3-carboxamide], the figure is 65 nM; as for `CN[C@@H](C)C(=O)N[C@H](C(=O)N1Cc2cc(NC(=O)c3ccc(CO[C@H]4C[C@@H](C(=O)N[C@@H]5CCCc6ccccc65)N(C(=O)[C@@H](NC(=O)[C@H](C)NC)C(C)(C)C)C4)cc3)ccc2C[C@H]1C(=O)N[C@@H]1CCCc2ccccc21)C(C)(C)C` [Example 47, (S)-2-((S)-3,3-Dimethyl-2-((S)-2-(methylamino)propanamido)butanoyl)-7-(4-((((3S,5S)-1-((S)-3,3-dimethyl-2-((S)-2-(methylamino)propanamido)butanoyl)-5-(((R)-1,2,3,4-tetrahydronaphthalen-1-yl)carbamoyl)pyrrolidin-3-yl)oxy)methyl)benzamido)-N—((R)-1,2,3,4-tetrahydronaphthalen-1-yl)-1,2,3,4-tetrahydroisoquinoline-3-carboxamide], 67 nM; as for `CN[C@@H](C)C(=O)N[C@H](C(=O)N1Cc2cc(N(Cc3ccc(C(=O)N[C@H]4C[C@@H](C(=O)N[C@@H]5CCCc6ccccc65)N(C(=O)[C@@H](NC(=O)[C@H](C)NC)C(C)(C)C)C4)cc3)C(C)=O)ccc2C[C@H]1C(=O)N[C@@H]1CCCc2ccccc21)C(C)(C)C` [Example 32, (S)-2-((S)-3,3-Dimethyl-2-((S)-2-(methylamino)propanamido)butanoyl)-7-(N-(4-(((3S,5S)-1-((S)-3,3-dimethyl-2-((S)-2-(methylamino)propanamido)butanoyl)-5-(((R)-1,2,3,4-tetrahydronaphthalen-1-yl)carbamoyl)pyrrolidin-3-yl)carbamoyl)benzyl)acetamido)-N—((R)-1,2,3,4-tetrahydronaphthalen-1-yl)-1,2,3,4-tetrahydroisoquinoline-3-carboxamide], 35 nM. As for `CN[C@@H](C)C(=O)N[C@H](C(=O)N1Cc2cc(NC(=O)c3cccc(CO[C@H]4C[C@@H](C(=O)N[C@@H]5CCCc6ccccc65)N(C(=O)[C@@H](NC(=O)[C@H](C)NC)C(C)(C)C)C4)c3)ccc2C[C@H]1C(=O)N[C@@H]1CCCc2ccccc21)C(C)(C)C` [Example 52, (S)-2-((S)-3,3-Dimethyl-2-((S)-2-(methylamino)propanamido)butanoyl)-7-(3-((((3S,5S)-1-((S)-3,3-dimethyl-2-((S)-2-(methylamino)propanamido)butanoyl)-5-(((R)-1,2,3,4-tetrahydronaphthalen-1-yl)carbamoyl)pyrrolidin-3-yl)oxy)methyl)benzamido)-N-((R)-1,2,3,4-tetrahydronaphthalen-1-yl)-1,2,3,4-tetrahydroisoquinoline-3-carboxamide], the IC50 worked out at 42 nM. On to `CC[C@H](NC)C(=O)N[C@H](C(=O)N1Cc2cc(NC(=O)c3ccc(C(=O)N[C@H]4C[C@@H](C(=O)N[C@@H]5CCCc6ccccc65)N(C(=O)[C@@H](NC(=O)[C@H](C)NC)C(C)(C)C)C4)cc3)ccc2C[C@H]1C(=O)N[C@@H]1CCCc2ccccc21)C(C)(C)C` [Example 15, N^1-((S)-2-((S)-3,3-Dimethyl-2-((S)-2-(methylamino)butanamido)butanoyl)-3-(((R)-1,2,3,4-tetrahydronaphthalen-1-yl)carbamoyl)-1,2,3,4-tetrahydroisoquinolin-7-yl)-N^4-((3S,5S)-1-((S)-3,3-dimethyl-2-((S)-2-(methylamino)propanamido)butanoyl)-5-(((R)-1,2,3,4-tetrahydronaphthalen-1-yl)carbamoyl)pyrrolidin-3-yl)terephthalamide], for which the IC50 amounted to 110 nM. As to `CN[C@@H](C)C(=O)N[C@H](C(=O)N1Cc2cc(NCc3ccc(C(=O)N[C@H]4C[C@@H](C(=O)N[C@@H]5CCCc6ccccc65)N(C(=O)[C@@H](NC(=O)[C@H](C)NC)C(C)(C)C)C4)cc3)ccc2C[C@H]1C(=O)N[C@@H]1CCCc2ccccc21)C(C)(C)C` [Example 31, (S)-2-((S)-3,3-Dimethyl-2-((S)-2-(methylamino)propanamido)butanoyl)-7-((4-(((3S,5S)-1-((S)-3,3-dimethyl-2-((S)-2-(methylamino)propanamido)butanoyl)-5-(((R)-1,2,3,4-tetrahydronaphthalen-1-yl)carbamoyl)pyrrolidin-3-yl)carbamoyl)benzyl)amino)-N—((R)-1,2,3,4-tetrahydronaphthalen-1-yl)-1,2,3,4-tetrahydroisoquinoline-3-carboxamide], the IC50 is 71 nM.
